Reference: patent US8309581B2, “Benzimidazole derivatives” (Hoffmann-La Roche Inc., priority 2009, dated 2012)
pIC50: −log10 of the molar value.

Biological target: T1, FXR ligand binding domain (Homo sapiens, UniProt Q96RI1)
T1 construct: made in house; host or cells: E. coli BL21 (pLysS)
T1 sequence (Q96RI1 193-472 isoform Q96RI1-2): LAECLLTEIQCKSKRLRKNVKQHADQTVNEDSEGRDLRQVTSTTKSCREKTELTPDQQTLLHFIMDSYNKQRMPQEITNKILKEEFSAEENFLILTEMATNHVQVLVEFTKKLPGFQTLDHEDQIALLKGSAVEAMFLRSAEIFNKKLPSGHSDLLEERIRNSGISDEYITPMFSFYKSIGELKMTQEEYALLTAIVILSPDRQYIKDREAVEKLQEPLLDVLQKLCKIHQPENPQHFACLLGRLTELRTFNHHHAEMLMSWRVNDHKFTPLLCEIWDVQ
Test: Radioligand Binding Assay (scintillation proximity radioligand displacement)
Conditions: GST-FXR LBD fusion protein on SPA beads, test compound 6×10^−9 M to 2.5×10^−5 M
Summary of the method: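 GST-fused human FXR LBD (aa 193-473, E. coli-expressed, 40 nM) was bound to glutathione SPA beads in 50 mM Hepes pH 7.4, 10 mM NaCl, 5 mM MgCl2, 0.01% CHAPS. Displacement of radioligand (e.g. 20 nM) was measured over 6×10^−9 to 2.5×10^−5 M compound, and IC50 calculated.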

SMILES	pIC50
FC1(F)CCC(Cn2c(-c3ccccc3CCc3ccc(-c4nnn[nH]4)cc3)nc3ccccc32)CC1 [Example 81, 1-(4,4-Difluoro-cyclohexylmethyl)-2-(2-{2-[4-(1H-tetrazol-5-yl)-phenyl]-ethyl}-phenyl)-1H-benzoimidazole]	7.40
CC1CCC(Cn2c(-c3ccccc3CCc3ccc(-c4nnn[nH]4)cc3)nc3ccccc32)CC1 (stereo not shown) [Example 82, 1-(4-Methyl-cyclohexylmethyl)-2-(2-{2-[4-(1H-tetrazol-5-yl)-phenyl]-ethyl}-phenyl)-1H-benzoimidazole]	8.00
c1ccc(-c2nc3ccccc3n2CCC2CCCCC2)c(CCc2ccc(-c3nnn[nH]3)cc2)c1 [Example 83, 1-(2-Cyclohexyl-ethyl)-2-(2-{2-[4-(1H-tetrazol-5-yl)-phenyl]-ethyl}-phenyl)-1H-benzoimidazole]	8.00
O=C(Nc1cc(Cl)ccc1-c1nc2cc(F)c(F)cc2n1CC1CCCCC1)c1ccc(-c2nnn[nH]2)cc1F [Example 84, N-[5-Chloro-2-(1-cyclohexylmethyl-5,6-difluoro-1H-benzoimidazol-2-yl)-phenyl]-2-fluoro-4-(1H-tetrazol-5-yl)-benzamide]	9.70
O=C(Nc1cc(Cl)ccc1-c1nc2cc(F)c(F)cc2n1CC1CCCCC1)c1ccc(-c2nnn[nH]2)c(F)c1 [Example 85, N-[5-Chloro-2-(1-cyclohexylmethyl-5,6-difluoro-1H-benzoimidazol-2-yl)-phenyl]-3-fluoro-4-(1H-tetrazol-5-yl)-benzamide]	9.22
O=C(Nc1ccc(-c2nnn[nH]2)cc1F)c1ccccc1-c1nc2cc(F)c(F)cc2n1CC1CCCCC1 [Example 86, 2-(1-Cyclohexylmethyl-5,6-difluoro-1H-benzoimidazol-2-yl)-N-[2-fluoro-4-(1H-tetrazol-5-yl)-phenyl]-benzamide]	8.52
Fc1cc2nc(-c3ccc(Cl)cc3OCC3CCCCC3)n(Cc3ccc(-c4nnn[nH]4)cc3F)c2cc1F [Example 87, 2-(4-Chloro-2-cyclohexylmethoxy-phenyl)-5,6-difluoro-1-[2-fluoro-4-(1H-tetrazol-5-yl)-benzyl]-1H-benzoimidazole]	7.70
CCC(CC)COc1cc(Cl)ccc1-c1nc2cc(F)c(F)cc2n1Cc1ccc(-c2nnn[nH]2)cc1F [Example 88, 2-[4-Chloro-2-(2-ethyl-butoxy)-phenyl]-5,6-difluoro-1-[2-fluoro-4-(1H-tetrazol-5-yl)-benzyl]-1H-benzoimidazole]	8.00
Fc1cc2nc(-c3ccc(Cl)cc3OCC3CC3)n(Cc3ccc(-c4nnn[nH]4)cc3F)c2cc1F [Example 89, 2-(4-Chloro-2-cyclopropylmethoxy-phenyl)-5,6-difluoro-1-[2-fluoro-4-(1H-tetrazol-5-yl)-benzyl]-1H-benzoimidazole]	7.22
Fc1cc2nc(-c3ccc(Cl)cc3OCC3CCOCC3)n(Cc3ccc(-c4nnn[nH]4)cc3F)c2cc1F [Example 90, 2-[4-Chloro-2-(tetrahydro-pyran-4-ylmethoxy)-phenyl]-5,6-difluoro-1-[2-fluoro-4-(1H-tetrazol-5-yl)-benzyl]-1H-benzoimidazole]	5.80
CCCOc1cc(Cl)ccc1-c1nc2cc(F)c(F)cc2n1Cc1ccc(-c2nnn[nH]2)cc1F [Example 91, 2-(4-Chloro-2-propoxy-phenyl)-5,6-difluoro-1-[2-fluoro-4-(1H-tetrazol-5-yl)-benzyl]-1H-benzoimidazole]	7.30
Fc1cc2nc(-c3ccc(Cl)cc3OCC3CCC3)n(Cc3ccc(-c4nnn[nH]4)cc3F)c2cc1F [Example 92, 2-(4-Chloro-2-cyclobutylmethoxy-phenyl)-5,6-difluoro-1-[2-fluoro-4-(1H-tetrazol-5-yl)-benzyl]-1H-benzoimidazole]	7.70
Fc1cc2nc(-c3ccc(Cl)cc3OCC3CCCCO3)n(Cc3ccc(-c4nnn[nH]4)cc3F)c2cc1F (stereo not shown) [Example 93, 2-[4-Chloro-2-(tetrahydro-pyran-2-ylmethoxy)-phenyl]-5,6-difluoro-1-[2-fluoro-4-(1H-tetrazol-5-yl)-benzyl]-1H-benzoimidazole]	7.22
Fc1cc2nc(-c3ccccc3OCC3CCCC3)n(Cc3ccc(-c4nnn[nH]4)cc3F)c2cc1F [Example 94, 2-(2-Cyclopentylmethoxy-phenyl)-5,6-difluoro-1-[2-fluoro-4-(1H-tetrazol-5-yl)-benzyl]-1H-benzoimidazole]	7.40
Fc1cc(-c2nnn[nH]2)ccc1Cn1c(-c2ccc(Cl)cc2OCC2CCCC2)nc2ccccc21 [Example 95, 2-(4-Chloro-2-cyclopentylmethoxy-phenyl)-1-[2-fluoro-4-(1H-tetrazol-5-yl)-benzyl]-1H-benzoimidazole]	8.00
Fc1cc2nc(-c3ccc(Cl)cc3OC3CCCCC3)n(Cc3ccc(-c4nnn[nH]4)cc3F)c2cc1F [Example 96, 2-(4-Chloro-2-cyclohexyloxy-phenyl)-5,6-difluoro-1-[2-fluoro-4-(1H-tetrazol-5-yl)-benzyl]-1H-benzoimidazole]	7.70
